Laboratory results: ChEMBL document CHEMBL4354779, “Selective modulation of the cannabinoid type 1 (CB1) receptor as an emerging platform for the treatment of neuropathic pain” (Medchemcomm, 2019)

Assays:
[1] = Brain to plasma permeability coefficient, Kp of compound in rat; type: ADME
Cannabinoid receptor 2 [2] = target: T1, Cannabinoid receptor 2 (Homo sapiens, UniProt P34972); test: Agonist activity at human CB2 receptor
Cannabinoid receptor 1 [3] = target: T2, Cannabinoid receptor 1 (Homo sapiens, UniProt P21554); test: Agonist activity at human CB1 receptor
T2 sequence (P21554 whole entry): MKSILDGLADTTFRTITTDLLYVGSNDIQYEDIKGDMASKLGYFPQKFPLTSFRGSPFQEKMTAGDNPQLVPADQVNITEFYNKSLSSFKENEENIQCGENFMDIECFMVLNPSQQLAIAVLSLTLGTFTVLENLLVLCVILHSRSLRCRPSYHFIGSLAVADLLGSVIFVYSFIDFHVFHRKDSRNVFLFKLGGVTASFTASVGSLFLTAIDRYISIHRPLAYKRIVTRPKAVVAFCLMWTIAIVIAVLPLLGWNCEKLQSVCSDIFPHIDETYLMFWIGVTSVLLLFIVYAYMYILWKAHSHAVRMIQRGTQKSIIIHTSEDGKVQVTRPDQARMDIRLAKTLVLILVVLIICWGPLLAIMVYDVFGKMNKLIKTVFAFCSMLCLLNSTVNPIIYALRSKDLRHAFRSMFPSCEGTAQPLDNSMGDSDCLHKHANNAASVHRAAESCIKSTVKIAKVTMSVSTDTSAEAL

[4] = Ratio of drug uptake in Sprague-Dawley rat brain to plasma at 1 to 8 umol/kg, sc measured after 60 mins by protein precipitation based LC-ESI-MS analysis; type: ADME, organism-based
Rattus norvegicus [5] = test: Antiallodynic activity in Sprague-Dawley rat model of L5/L6 spinal nerve ligation-induced neuropathic pain at 8 umol/kg by up-and-down method relative to control; type: functional
[6] = Ratio of drug uptake in C57BL/6 mouse brain to plasma at 1 to 16 umol/kg, sc measured after 60 mins by protein precipitation based LC-ESI-MS analysis; type: ADME, organism-based
[7] = Ratio of drug uptake in Sprague-Dawley rat brain to plasma at 3 umol/kg, sc measured after 60 mins by protein precipitation based LC-ESI-MS analysis; type: ADME, organism-based; conditions: 1 h
Cannabinoid receptor 1 [8] = target: T2, Cannabinoid receptor 1; test: Inhibition of 3H-CP55,940 tracer binding to human CB1 receptor expressed in HEK293 cell membranes after 1 hr by scintillation counting method
Cannabinoid receptor 2 [9] = target: T1, Cannabinoid receptor 2; test: Inhibition of 3H-CP55,940 tracer binding to human CB2 receptor expressed in Sf9 insect cell membranes after 1 hr by scintillation counting method
Cannabinoid receptor 1 [10] = target: T2, Cannabinoid receptor 1; test: Agonist activity at human CB1 receptor expressed in HEK293 cell membranes after 1 hr by scintillation counting method
[11] = Ratio of drug uptake in C57BL/6 mouse brain to plasma at 0.5 to 27 umol/kg, sc measured after 60 mins by protein precipitation based LC-ESI-MS analysis; type: ADME, organism-based; conditions: 1 h
Rattus norvegicus [12] = test: Antiallodynic activity in Sprague-Dawley rat model of L5/L6 spinal nerve ligation-induced neuropathic pain at 2.5 umol/kg by up-and-down method relative to control; type: functional

T1 sequence (P34972 whole entry): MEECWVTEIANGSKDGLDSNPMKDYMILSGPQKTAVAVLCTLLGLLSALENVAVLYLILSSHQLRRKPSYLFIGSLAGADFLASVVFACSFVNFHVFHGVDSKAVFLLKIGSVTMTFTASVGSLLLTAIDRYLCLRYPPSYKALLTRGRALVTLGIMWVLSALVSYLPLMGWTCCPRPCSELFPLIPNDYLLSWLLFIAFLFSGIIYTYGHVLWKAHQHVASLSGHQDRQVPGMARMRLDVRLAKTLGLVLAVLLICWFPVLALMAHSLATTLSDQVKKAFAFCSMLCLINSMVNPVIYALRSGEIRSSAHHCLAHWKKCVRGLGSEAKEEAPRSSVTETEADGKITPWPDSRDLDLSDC

## CC(C)(C)c1nc2cc(NS(C)(=O)=O)ccc2n1CC1CCC(F)(F)CC1
[1]
  Kp: 0.04
Cannabinoid receptor 2 [2]
  Ki: 0.871 nM
Cannabinoid receptor 1 [3]
  Ki: 11.7 nM

## Cc1c(C(=O)c2cccc3ccccc23)c2cccc3c2n1C[C@H](CN1CCOCC1)O3
[4]
  Kp at 1 h: 2.2
Rattus norvegicus [5]
  Activity: 100%
[6]
  Kp at 1 h: 4.2

## CCOc1ccc(Cc2nc3cc(N(C)S(=O)(=O)c4cccs4)ccc3n2CC2CCCCC2)nc1
[7]
  Ratio: 7%
Cannabinoid receptor 1 [8]
  IC50: 3.98 nM
Cannabinoid receptor 2 [9]
  IC50: 1 nM
Cannabinoid receptor 1 [10]
  EC50: 10 nM
[11]
  Ratio: 5%
Rattus norvegicus [12]
  Activity: 100%
